A word on the IC50: it is the point on the concentration scale where inhibition reaches its midpoint. A higher IC50 goes with a need for much substance. What is called Papp is the rate of passage across a membrane or cell layer, normalised by area and donor concentration. A low value points to poor permeation. One may read the efflux ratio as the permeability from basolateral to apical divided by that in the opposite direction, in the common usage.

The text below walks through data of US20240368163A1, “COMPOUNDS AND METHODS FOR MODULATING SPLICING” (REMIX THERAPEUTICS INC., priority 2021, published 2024).

One series deals with Target C. The experiment in a line: HiBiT protein abundance assay, Target C. Format: cell-based, human. The note with it: Table 13A, modified K562 cells. The method, boiled down: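 Luminescence from lytic HiBiT detection, taken after 24 h compound exposure at 37 °C, reports tagged protein abundance in knock-in cells seeded at 10000 cells/well. Doses spanned 10 points, 3-fold steps, top 10 μM final. A four-parameter logistic fit gave the 50% abundance concentration (IC50).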
(HiBiT is a short tag that completes a luciferase, so light tracks the accessible tagged protein.)

The test system of a further series is MYB. The experiment in a line: HiBiT protein abundance assay, MYB. Format: cell-based, human. The conditions noted are these: Table 13A, modified K562 cells. In outline:
(§1)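 HiBiT knock-in K562, 10000 cells/well, 24 h cpd at 37 °C/5% CO2; 10-pt 3-fold series from 10 μM final; DMSO ≤0.25%. Lytic detection, luminescence read. 4PL fit → IC50 vs DMSO control; unmodified K562 = baseline.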

A further series has as its system HTT. The experiment in a line: HiBiT protein abundance assay, HTT. It is filed as cell-based, human. The conditions noted are these: Table 13A, modified K562 cells. The method, boiled down: as §1
A short description of series [1]: Transwell assay for membrane efflux and permeability. Format: in vitro ADME, Canine. The note with it: dog; MDCK-BCRP or MDCKII-MDR1 transwell, test compound 1 μM, 2 hours at 37° C. An excerpt:
Compounds described herein were screened for cell membrane permeability and efflux in a transwell assay using Madin-Darby Canine Kidney (MDCK) cells expressing Breast Cancer Resistance Protein (BCRP) or subclone MDCKII cells expressing Multidrug Resistance Protein 1 (MDR1).
MDCK-BCRP or MDCKII-MDR1 Cells: The Netherlands Cancer Institute, High Glucose Dulbecco's Modified Eagle's Medium (DMEM): Gibco/Thermo Fisher Scientific, Fetal Bovine Serum (FBS): Coming, Hank's Balanced Salt Solution (HBSS) and Trypsin/EDTA: Gibco/Thermo Fisher Scientific, HTS Transwell-96 Well Permeable Supports: Coming Corporation, Millicell Epithelial Volt-Ohm: Millipore, Cellometer® Vision: Nexcelom Bioscience LLC, Infinite 200 PRO microplate reader: Tecan, MTS2/4 orbital shaker: IKA Labortechnik, HEPES/Penicillin/Streptomycin: Solarbio.
MDCK-BCRP or MDCKII-MDR1 cells were seeded to each of the wells of the transwell plate at a density of 1.6×10^6 cells/mL and the plate was incubated for 4-8 days with medium changes every two days. To perform the drug transport assay, cell monolayers were first washed three times with pre-warmed HBSS and then incubated with gentle shaking (150 rpm) for 30 min at 37° C. Stock solutions of test compounds (e.g., exemplary compounds of Formulas (I), (II), and (III)) and control compounds (e.g., metoprolol, prazosin, and/or imatinib) were prepared in DMSO and adjusted to a working solution using HBSS. The final concentration of test compounds was 1 μM with DMSO; 0.5%. The plates were incubated at 37° C. for 2 hours.

As for `CN(c1ccc(-c2cc(F)c(-c3cn[nH]c3)c3cn[nH]c23)nn1)[C@@H]1C[C@H]2CC[C@@H](C1)N2` [Compound 147], the IC50 in the series on Target C (24 hours), with MYB (24 hours) and with HTT (24 hours) was below 0.1 µM in each case. The compound also returned a Papp at 2 h, 1 μM in series [1] below 2 ×10⁻⁶ cm/s. Also, in series [1], the efflux ratio at 2 h, 1 μM was above 5.
`COc1cc(-c2ccc(-c3ccc(N(C)[C@@H]4C[C@H]5CC[C@@H](C4)N5)nn3)c3[nH]ncc23)ccn1` [Compound 385, (exo)-N-{6-[4-(2-methoxypyridin-4-yl)-1H-indazol-7-yl]pyridazin-3-yl}-N-methyl-8-azabicyclo[3.2.1]octan-3-amine]: in series [1], the Papp at 2 h, 1 μM is below 2 ×10⁻⁶ cm/s and the efflux ratio at 2 h, 1 μM was above 5.
For `CN(c1ccc(-c2ccc(-c3cnn(C)c3)c3cn[nH]c23)nn1)[C@@H]1C[C@H]2CC[C@@H](C1)N2` [Compound 386, (exo)-N-methyl-N-{6-[4-(1-methylpyrazol-4-yl)-1H-indazol-7-yl]pyridazin-3-yl}-8-azabicyclo[3.2.1]octan-3-amine], the IC50 with Target C (Homo sapiens, K562, 24 h) is below 0.1 µM; in the series with MYB (Homo sapiens, K562, 24 h), below 0.1 µM; in the series with HTT (Homo sapiens, K562, 24 h) it was below 0.1 µM. Moreover, the Papp at 2 h, 1 μM in series [1] was below 2 ×10⁻⁶ cm/s. Further, in series [1], the efflux ratio at 2 h, 1 μM is above 5.
